Each compound was assayed against purified Human plasma Kallikrein (Homo sapiens (Human), UniProt P03952) (assay: Kallikrein Assay). Settings: purified Human plasma Kallikrein 0.5 nM; substrate Acetyl-K-P-R-AFC; 50 mM HEPES pH 7.4; Ki from IC50 by Cheng Prusoff.
purified Human plasma Kallikrein, sequence (P03952 391-638): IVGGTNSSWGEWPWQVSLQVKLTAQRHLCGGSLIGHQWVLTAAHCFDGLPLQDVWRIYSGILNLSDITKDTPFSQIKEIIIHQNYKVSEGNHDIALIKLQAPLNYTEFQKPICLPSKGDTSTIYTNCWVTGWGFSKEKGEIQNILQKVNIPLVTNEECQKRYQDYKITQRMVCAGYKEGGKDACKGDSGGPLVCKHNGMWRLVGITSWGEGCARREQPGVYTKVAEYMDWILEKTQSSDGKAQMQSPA
purified Human plasma Kallikrein, sequence (P03952 20-390 partner): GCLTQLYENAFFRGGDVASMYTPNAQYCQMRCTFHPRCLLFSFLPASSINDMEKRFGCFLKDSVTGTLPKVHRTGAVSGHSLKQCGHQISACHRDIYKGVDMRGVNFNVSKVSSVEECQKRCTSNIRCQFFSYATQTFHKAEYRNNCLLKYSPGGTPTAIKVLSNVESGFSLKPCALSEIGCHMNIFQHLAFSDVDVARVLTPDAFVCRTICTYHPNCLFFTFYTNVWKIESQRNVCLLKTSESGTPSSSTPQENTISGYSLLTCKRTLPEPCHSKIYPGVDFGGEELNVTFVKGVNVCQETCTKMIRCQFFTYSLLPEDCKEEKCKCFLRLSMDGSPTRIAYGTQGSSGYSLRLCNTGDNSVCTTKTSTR
Format: biochemical
Method: The effectiveness of a compound of the present invention as an inhibitor of Kallikrein can be determined using a relevant purified serine protease, and an appropriate synthetic substrate. The rate of hydrolysis of the chromogenic or fluorogenic substrate by the relevant serine protease was measured both in the absence and presence of compounds of the present invention. Assays were conducted at rt or at 37° C. […] A decrease in the rate of fluorescence change in the presence of inhibitor is indicative of enzyme inhibition. Such methods are known to one skilled in the art. The results of this assay are expressed as the inhibitory constant, Ki.
Kallikrein determinations were made in 50 mM HEPES buffer at pH 7.4 containing 150 mM NaCl, 5 mM CaCl2, and 0.1% PEG 8000 (polyethylene glycol; Fisher Scientific). Determinations were made using purified Human plasma Kallikrein at a final concentration of 0.5 nM (Enzyme Research Laboratories) and the synthetic substrate, Acetyl-K-P-R-AFC (Sigma # C6608) at a concentration of […].
Times required to achieve equilibration between enzyme and inhibitor were determined in control experiments. […] IC50 was determined by inflection point from a four parameter logistic curve fit. Ki was calculated using the Cheng Prusoff equation, Ki=IC50/(1+([S]/Km)).
For `COC(=O)Nc1ccc2c(c1)NC(=O)C(C)CCCC(c1cc(OC)c(-c3c(F)ccc(Cl)c3F)c[n+]1[O-])c1cccc-2c1` (single isomer, unassigned) [Example 88-d, 5-(3-Chloro-2,6-difluorophenyl)-4-methoxy-2-(2^4-((methoxycarbonyl)amino)-5-methyl-4-oxo-3-aza-1(1,3),2(1,2) -dibenzenacyclononaphane-9-yl)pyridine 1-oxide], the Ki was 5.21 nM. `COC(=O)Nc1ccc2c(c1)NC(=O)CCCCC(c1ccc(-c3cc(Cl)ccc3-n3cc(C(=O)O)nn3)cn1)c1cccc-2c1` (single isomer, unassigned) [Example 92-a, 1-(4-chloro-2-(6-(2^4-((methoxycarbonyl)amino)-4-oxo-3-aza-1(1,3),2(1,2) -dinenzenacyclononaphane-9-yl)pyridin-3-yl)phenyl)-1H-1,2,3-triazole-4-carboxylic acid] gave a Ki of 26 nM. In the case of `COC(=O)Nc1ccc2c(c1)NC(=O)CCCCC(c1ccc(-c3c(F)ccc(Cl)c3F)c[n+]1[O-])c1ccnc-2c1` (single isomer, unassigned) [Example 93-a, 5-(3-Chloro-2,6-difluorophenyl)-2-(2^4-((methoxycarbonyl)amino)-4-oxo-3-aza-1 (2,4)-pyridina-2(1,2)-benzenacyclononaphane-9-yl)pyridine 1-oxide], the Ki is reported as 1.92 nM. `COC(=O)Nc1ccc2c(c1)NC(=O)C(C)CCCC(c1ccc(-c3c(F)ccc(Cl)c3F)cn1)c1cc-2ccn1` (single isomer, unassigned) [Example 95-a, Methyl (9-(5-(3-chloro-2,6-difluorophenyl)pyridin-2-yl)-5-methyl-4-oxo-3-aza-1(4,2)-pyridina-2(1,2)-benzenacyclononaphane-2^4-yl)carbamate] showed a Ki of 11.7 nM. With `COC(=O)Nc1ccc2c(c1)NC(=O)C(C)CCCC(c1ccc(-c3c(F)ccc(Cl)c3F)cn1)c1cc-2ccn1` (single isomer, unassigned) [Example 95-d, Methyl (9-(5-(3-chloro-2,6-difluorophenyl)pyridin-2-yl)-5-methyl-4-oxo-3-aza-1(4,2)-pyridina-2(1,2)-benzenacyclononaphane-2^4-yl)carbamate] the Ki was 10.8 nM. Work on `COC(=O)Nc1ccc2c(c1)NC(=O)C(C)CCCC(c1ccc(-c3c(F)ccc(Cl)c3F)c[n+]1[O-])c1nc-2c[nH]1` (single isomer, unassigned) [Example 114-a, (Z)-5-(3-chloro-2,6-difluorophenyl)-2-(2^4-((methoxycarbonyl)amino)-5-methyl-4-oxo-1^1H-3-aza-1(4,2)-imidazola-2(1,2) -benzenacyclononaphane-9-yl)pyridine 1-oxide] yielded a Ki of 0.24 nM. For `COC(=O)Nc1ccc2c(c1)NC(=O)C(C)CCCC(c1ccc(-c3c(F)ccc(Cl)c3F)c[n+]1[O-])c1nc-2c[nH]1` (single isomer, unassigned) [Example 114-c, (Z)-5-(3-chloro-2,6-difluorophenyl)-2-(2^4-((methoxycarbonyl)amino)-5-methyl-4-oxo-1^1H-3-aza-1(4,2)-imidazola-2(1,2) -benzenacyclononaphane-9-yl)pyridine 1-oxide], the Ki was 0.78 nM. `COC(=O)Nc1ccc2c(c1)NC(=O)CCCC[C@H](c1ccc(-c3c(F)cccc3-n3cc(C(F)(F)F)cn3)c[n+]1[O-])c1nc-2c[nH]1` (single isomer, unassigned) [Example 115] showed a Ki of 331 nM. `COC(=O)Nc1ccc2c(c1)NC(=O)CCCC[C@H](c1ccc(-c3c(F)cccc3OC(F)F)c[n+]1[O-])c1nc-2c(C)[nH]1` (single isomer, unassigned) [Example 126] was tested, and the Ki was 2.03 nM. With `COC(=O)Nc1ccc2c(c1)NC(=O)CCCC[C@H](c1ccc(-c3c(OC(F)F)ccc(F)c3F)c[n+]1[O-])c1nc-2c(C)[nH]1` (single isomer, unassigned) [Example 130] the Ki was 0.66 nM. Work on `COC(=O)Nc1ccc2c(c1)NC(=O)CCCCC(c1ccc(-c3c(F)cccc3OC(F)(F)F)c[n+]1[O-])c1nc-2c(C)[nH]1` (single isomer, unassigned) [Example 131] yielded a Ki of 5.32 nM.

Source: patent US10214512B2, “Factor XIA inhibitors” (MERCK SHARP & DOHME CORP., priority 2015, dated 2019)
